Test results reported in patent US7642369B2, “Epoxyketone-based immunoproteasome inhibitors” (University of Kentucky Research Foundation, priority 2006, dated 2010).
“Also recorded” adds a separate entry of the source. Where two headings read alike, the source gives them in different places.

What was measured:
[1] = tested on: 20S immunoproteasome; experiment: Enzyme kinetics: inhibition of chymotrypsin-like activity of purified 20S immunoproteasome, fluorogenic substrate Suc-Leu-Leu-Val-Tyr-AMC; format: biochemical, bovine; conditions: for Kobs/[I], 20S immunoproteasome: purified 20S immunoproteasome; for Relative selectivity: immunoproteasome/regular proteasome, normalized against epoxomicin
Description: (§1) Since LMP2 is a major catalytic subunit responsible for chymotrypsin-like activity, inactivation of the LMP2 subunit inhibits proteolytic activity of immunoproteasome. […] Enzyme kinetics experiments were also carried out with the purified 20S constitutive proteasome as control.
(§2) Enzyme kinetics were performed by measuring the chymotrypsin-like activity of 20S immunoproteasome and regular proteasome in the presence of compound 15 using a fluorogenic peptide substrate.
(§3) Enzyme Kinetic Studies: kassociation values were determined as follows. Inhibitors were mixed with a fluorogenic peptide substrate and assay buffer [20 mM Tris (pH 8.0), 0.5 mM EDTA, and 0.035% SDS] in a 96-well plate. The chymotrypsin-like activity was assayed using the fluorogenic peptide substrates Suc-Leu-Leu-Val-Tyr-AMC (Sigma-Aldrich). Hydrolysiswas initiated by the addition of bovine 20S proteasome or immunoproteasome (Biomol International), and the reaction was followed by fluorescence (360-nm excitation/460-nm detection) using a Microplate Fluorescence Reader (FL600; Bio-Tek Instruments, Inc., Winnoski, Vt.) employing the software KC4 v.2.5 (Bio-Tek Instruments, Inc., Winooski, Vt.). Reactions were allowed to proceed for 60-90 min, and fluorescence data were collected every 1 min. Fluorescence was quantified as arbitrary units and progression curves were plotted for each reaction as a function of time. kobserved/[I] values were obtained using PRISM program by nonlinear least squares fit of the data to the following equation: fluorescence=vst+[(v0−vs)/kobserved][1−exp(−kobserved t)], where v0 and vs are the initial and final velocities, respectively, and kobserved is the reaction rate constant. […] Reactions were performed using inhibitor concentrations that were <100-fold of those of the proteasome assayed.

[2] = tested on: H460 (Lung); experiment: Cell proliferation assay by counting cell numbers after 24 h incubation; format: cell-based; conditions: cell number after 24 h incubation
Description: (§4) To compare the efficacy of the present LMP2 inhibitor compounds and, in particular, LMP2 inhibitor 15, as compared to prior known inhibitors, comparative tests were conducted using compound 21 in expressing tumor cells. LMP2 inhibitor compound 21 blocked proliferation of lung cancer H460, prostate cancer cells PC3 and multiple myeloma cells RPMI8226, as summarized in Table 2, below.

[3] = tested on: PC3 (Prostate); experiment: as above; format: cell-based; conditions: cell number after 24 h incubation
Description: as §4

[4] = tested on: RPMI8226 (MM); experiment: as above; format: cell-based; conditions: cell number after 24 h incubation
Description: as §4

[5] = tested on: WI-38 (Fibroblast); experiment: as above; format: cell-based; conditions: cell number after 24 h incubation
[6] = tested on: proteasome subunits Z, MECL1, LMP7 and X; experiment: Competition screening assay in EL4 cells with biotin-epoxomicin probe, streptavidin-HRP western blot; format: binding, Murine; conditions: 30 min pre-incubation, 1 hr probe
Description: (§5) Med. Chem. Lett. 9, 3335-3340 (1999) (herein incorporated by reference); and “Towards Immunoproteasome-Specific Inhibitors: An Improved Synthesis of Dihydroeponemycin.” Specifically, various concentrations of these compounds were pre-incubated in EL4 cells at 37° C. for 30 min. […] After cells were lysed, whole cell lysates were analyzed using 12% SDS-PAGE and transferred to PVDF membranes. Biotinylated proteins were then visualized using streptavidin-horseradish peroxidase (HRP) and enhanced chemiluminescence (ECL).
(§6) The western blots were performed using EL4 cells pre-incubated with proteasome inhibitors for 30 min before treating with biotinylated compounds. After 1 hr incubation, cells were lysed, and analyzed by western blot using streptavidin-HRP and ECL.
Preincubation of EL4 cells with 1 μM of compound 15 (one equivalent of assay probe) was sufficient to selectively modify the catalytic threonine residue of LMP2 subunit, thereby preventing further modification of LMP2 subunit by biotin-dihydroeponemycin, resulting in selective attenuation of LMP2 protein band on western blot.
Cell Culture and Screening Assay: Murine lymphoma EL4 (ATCC) cells were grown in RPMI medium (Gibco), 10% fetal bovine serum and 1% penicillin and streptomycin at […] in a 5% CO2 incubator. […] Cell lysates were analyzed by 12% SDS-PAGE and transferred to PVDF membrane. […]

[7] = target: T1, 20S regular proteasome (Bos taurus, UniProt Q2TBX6+Q32KL2); experiment: Enzyme kinetics: inhibition of chymotrypsin-like activity of purified 20S constitutive (regular) proteasome, fluorogenic substrate Suc-Leu-Leu-Val-Tyr-AMC; format: biochemical, bovine; conditions: for kinact/KI: read-out: Kobs/[I], 20S regular proteasome
T1 construct: purchased Biomol International
Description: as §1, §2, §3

[8] = tested on: proteasome subunits LMP7/X and LMP2; experiment: Competition screening assay in EL4 cells with biotin-dihydroeponemycin probe, streptavidin-HRP western blot; format: binding, Murine; conditions: for Proteasome subunit binding and specificity, competition against biotin-dihydroeponemycin labelling: EL4 cells, 30 min pre-incubation, 1 hr probe, western blot
Description: as §5, §6
Similar competition assays were performed to screen for immunoproteasome inhibitors in a EL4 cell model system. EL4 cell system was chosen since these cells highly express catalytic subunits of both the constitutive and immunoproteasomes.
(§7) Cell Culture and Screening Assay: Murine lymphoma EL4 (ATCC) cells were grown in RPMI medium (Gibco), 10% fetal bovine serum and 1% penicillin and streptomycin at […] in a 5% CO2 incubator. […] The cells were then incubated for an additional 1 hour. Cell lysates were analyzed by 12% SDS-PAGE and transferred to PVDF membrane. Proteins that were covalently modified by biotinylated compounds were visualized by enhanced chemiluminescence using streptavidin conjugated horseradish peroxidase (Sigma-Aldrich) or anti-LMP2 (Affinity BioReagents) and Biomax X-ray film (Kodak).

[9] = target: T2, LMP2 subunit (Mus musculus, UniProt O35955+P28076); experiment: LMP2 mobility shift in EL4 cells, western blot with anti-LMP2 antibody; format: binding, Murine; conditions: 1 hr at 37° C.; for Covalent modification of LMP2, mobility shift of adduct on SDS PAGE: anti-LMP2 western blot
T2 construct: sufficient to modify LMP2 subunits present in cells; endogenous in cells; host or cells: EL4 murine lymphoma cells (ATCC)
Description: The mobility shift of LMP2:15 adduct was investigated to further verify that compound 15 covalently modifies the LMP2 subunit (FIG. 5). After EL4 cells were incubated with compound 15 or assay probes (Biotin-EPX and Biotin-EPN) for 1 hr at 37° C., cells were lysed and boiled for 15 min. Whole cell proteins were then analyzed by western blot using anti-LMP2 antibody.
Since molecular weights of the LMP2 subunit are increased by 828.08 (for biotin-epoxomicin) and 1078.45 (for biotin-dihydroeponemycin), assay probe-LMP2 adducts are expected to show a slower mobility as compared to free LMP2 (lanes 1-3, FIG. 5). […] It can be explained by a smaller molecular weight of compound 15 (484.76) compared to assay probes (828.08 and 1078.45). […] LMP2 inhibitor efficiently blocks the proteolytic activity of immunoproteasome with high specificity. Screening assay and mobility shift studies have shown that compound 15 selectively inactivates the LMP2 subunit via covalent modification. Since LMP2 is a major catalytic subunit responsible for chymotrypsin-like activity, inactivation of the LMP2 subunit inhibits proteolytic activity of immunoproteasome. Confirmation of this is provided by enzyme kinetics studies performed using purified 20S immunoproteasome. Enzyme kinetics experiments were also carried out with the purified 20S constitutive proteasome as control.
as §7

Question: For `CC[C@H](C)[C@H](NC(=O)[C@H]([C@@H](C)CC)N(C)C(C)=O)C(=O)N[C@H](C(=O)N[C@@H](CC(C)C)C(=O)[C@@]1(C)CO1)[C@@H](C)O` [Epoxomicin, epoxomicin], which “Kobs/[I], 20S immunoproteasome” value ([1]; chymotrypsin-like activity) is on record?
Answer: The value was 3,044 ± 1,423 M^−1S^−1.

Question: What about the IC50 [2] of the same compound?
Answer: The IC50 was 100 nM.

Question: And the IC50 [3]?
Answer: Its IC50 is 10 nM.

Question: And the IC50 [4]?
Answer: The IC50 was 100 nM.

Question: What about the IC50 [5] of the same compound?
Answer: Its IC50 is 28 nM.

Question: And the “Proteasome subunit binding, competition against biotin-epoxomicin labelling” value [6]?
Answer: Its value is “proteasome subunit (Z, MECL1, LMP7 and X) bands are efficiently competed away”.

Question: What about the “Proteasome subunit binding, competition against biotin-epoxomicin labelling” value ([6]; listed as epoximicin) of the same compound?
Answer: Its value is “do not have specificity towards subunits of either the constitutive or immunoproteasomes”.

Question: `CCCCCCC(=O)N[C@@H](C)C(=O)N[C@@H](CC(C)C)C(=O)[C@@]1(CO[Si](C)(C)C(C)(C)C)CO1` [Compound 15] was tested. Which “Inhibition of chymotrypsin-like activity of 20S regular proteasome (in words)” value ([7]; fluorogenic peptide substrate) did it give?
Answer: The value was “poorly inhibited the chymotrypsin-like activity of 20S regular proteasome”.

Question: What about the kinact/KI [7] of the same compound?
Answer: The kinact/KI was 49 ± 18 M⁻¹ s⁻¹.

Question: What about the “Kobs/[I], 20S immunoproteasome” value ([1]; chymotrypsin-like activity) of the same compound?
Answer: The value was 83 ± 27 M^−1S^−1.

Question: What about the “higher selectivity toward the 20S immunoproteasome in comparison to dihydroeponemycin” value ([1]; chymotrypsin-like activity, versus dihydroeponemycin) of the same compound?
Answer: The value was 5 fold.

Question: And the “higher selectivity toward the 20S immunoproteasome in comparison to epoxomicin” value ([1]; chymotrypsin-like activity, versus epoxomicin)?
Answer: The value was 24 fold.

Question: And the “Inhibition of chymotrypsin-like activity of 20S immunoproteasome (in words)” value ([1]; fluorogenic peptide substrate)?
Answer: Its value is “displayed a better inhibitory activity against the immunoproteasome; also recorded: time- and concentration-dependent inhibition”.

Question: And the Relative selectivity [1]?
Answer: The Relative selectivity was 24.

Question: What about the “Concentration sufficient to selectively modify the catalytic threonine residue of LMP2 subunit” value ([8]; EL4 cells preincubated, one equivalent of assay probe (biotin-dihydroeponemycin)) of the same compound?
Answer: Its value is 1 µM.

Question: And the “Proteasome subunit binding and specificity, competition against biotin-dihydroeponemycin labelling” value [8]?
Answer: The value was “selectively targeting the immunoproteasome subunit LMP2; also recorded: even higher specificity towards the LMP2 subunit was obtained”.

Question: What about the “Covalent modification of LMP2, mobility shift of adduct on SDS PAGE” value [9] of the same compound?
Answer: The value was “covalently modify the immunoproteasome subunit LMP2”.

Question: What about the “Covalent modification of LMP2, mobility shift of adduct on SDS PAGE” value ([9]; listed as compound 15) of the same compound?
Answer: Its value is “slower mobility for the LMP2-15 adduct on SDS PAGE was clearly shown as compared to free LMP2”.

Question: And the “Concentration sufficient to modify LMP2 subunits present in cells” value ([9]; mobility shift)?
Answer: The value was 1 µM.

Question: Which “Proteasome subunit binding and specificity, competition against biotin-dihydroeponemycin labelling” value [8] does the source give for `CCCCCCC(=O)N[C@@H](C)C(=O)N[C@@H](CC(C)C)C(=O)[C@@]1(CO)CO1` [Compound 9] here?
Answer: Its value is “LMP7/X and LMP2 protein bands are competed away”.

Question: What does the source list for `CC(C)CCCCC(=O)N[C@@H](CO)C(=O)N[C@@H](CC(C)C)C(=O)[C@@]1(CO)CO1` [Dihydroeponemycin, dihydroeponemycin, reference compound]?
Answer: kinact/KI ([7]; chymotrypsin-like activity, purified 20S constitutive proteasome): 721 ± 84 M⁻¹ s⁻¹; Kobs/[I], 20S immunoproteasome ([1]; chymotrypsin-like activity): 251 ± 121 M^−1S^−1; Relative selectivity [1]: 5; Proteasome subunit binding and specificity, competition against biotin-dihydroeponemycin labelling [8]: LMP7/X and LMP2 protein bands are competed away; also recorded: do not have specificity towards subunits of either the constitutive or immunoproteasomes

Question: How did the “Proteasome subunit binding and specificity, competition against biotin-dihydroeponemycin labelling” value [8] turn out when `CCCCCCC(=O)N[C@@H](CO)C(=O)N[C@@H](CC(C)C)C(=O)[C@@]1(COCOC)CO1` [Compound 11] was run?
Answer: Its value is “do not selectively target proteasome subunits; also recorded: dramatic loss in the potency and specificity compared to dihydroeponemycin”.

Question: With `CCCCCCC(=O)N[C@@H](CO)C(=O)N[C@@H](CC(C)C)C(=O)[C@@]1(COCOCCOC)CO1` [Compound 12] as the compound, how does the “Proteasome subunit binding and specificity, competition against biotin-dihydroeponemycin labelling” value [8] read?
Answer: The value was “selectively targeting the immunoproteasome subunit LMP2; also recorded: high specificity towards LMP2 was achieved”.
